Measurements as given in paper PMC8667918, “Synthesis and biological evaluation of halogenated phenoxychalcones and their corresponding pyrazolines as cytotoxic agents in human breast cancer” (Journal of Enzyme Inhibition and Medicinal Chemistry, 2021).

Experiments:
[1] = system: MCF-7 breast cancer cell line; experiment: MTT assay, cytotoxicity against breast cancer cell line MCF-7; conditions: for IC50: Homo sapiens, MCF7, 48 h, read-out: In vitro cytotoxicity IC50 MCF-7; for Selectivity index: ratio of IC50 on normal cells (MCF-10a) to cancer cells (MCF-7)
Procedure: (§1) Human breast cancer cell line MCF-7 and normal breast cell line MCF-10a were obtained from American type culture collection, MCF-7 cells were cultured using Dulbecco’s Modified Eagle Medium DMEM (Invitrogen/Life Technologies) supplemented with 10% FBS (Hyclone), 10 µg/ml of insulin (Sigma), and 1% penicillin-streptomycin. MCF-10a cell line was cultured using DMEM medium supplemented with 10% FBS, 1% sodium pyruvate, 1% MEM NEAA, 20 ng/ml human epidermal growth factor (HEGF), 10 μg/ml insulin and 0.05 mM hydrocortisone. The cells were incubated at 37 °C in a humidified atmosphere of 5% CO2.
(§2) The anticancer effect of phenoxychalcones and N-acetylpyrazolines on the viability of both tumour and normal cells was evaluated using МТТ assay as a rapid colorimetric assay. It is based on the ability of mitochondrial dehydrogenases of viable cells to reduce yellow tetrazolium salt MTT to blue formazan in quantities proportional to the number of living cells. The cells were incubated with the medium alone or with the tested compounds at concentrations of 100 µM, 25 µM, 6.25 µM, 1.56 µM and 0.39 µM for 48 h. […] Then, 20 μL MTT solution was added to each well and mixed. After 4 h, the supernatants were removed and 100 μL DMSO was added to each well to dissolve the precipitate. The viability of cells was estimated by measuring the absorbance at 570 nm using a Bioline ELIZA plate reader. The cell viability percentage was calculated based on the absorbance ratio between cell culture treated with the compounds and the untreated control multiplied by 100. Selectivity index (SI) was calculated as the ratio of cytotoxicity (IC50) on normal cells (MCF-10a) to cancer cells (MCF-7).

[2] = MTT assay, cytotoxicity against normal breast cell line MCF-10a; conditions: human, MCF-10a normal breast cells
Procedure: as §1, §2

MCF-7 = conditions: reported chalcones of Figure 1; cited from earlier work
leukemia = system: leukemia; parameters: method as in PMID 31927336, PMID 22503741; conditions: reported chalcone of Figure 1; cited from earlier work
C6 and Hela cell lines = system: C6 and Hela cell lines; parameters: method as in PMID 31927336, PMID 22503741; conditions: reported chalcone of Figure 1; cited from earlier work

Row | Compound | IC50 [1] [µM] | Selectivity index [1] | IC50 at 48 h [2] [µM] | melting point [°C] | other results
1 | CC(=O)N1N=C(c2ccc(C)cc2)CC1c1ccc(Oc2ccc(Br)cc2)cc1 (stereo not drawn) [Compound 3c, 1–(5-(4–(4-Bromophenoxy)phenyl)-3-(p-tolyl)-4,5-dihydro-1H-pyrazol-1-yl)ethanone] | 7.42 ± 0.28 | 2.63 | 19.5 ± 0.69 | 141 to 143 | 
2 | O=C(/C=C/c1cc(Br)ccc1O)c1ccc(Br)cc1 [VIII] |  |  |  |  | IC50 (MCF-7): 3.82 ± 0.022 µM
3 | CC(=O)N1N=C(c2ccc(Br)cc2)CC1c1ccc(Oc2ccc(Cl)cc2)cc1 (stereo not drawn) [Compound 3e, 1–(3-(4-Bromophenyl)-5–(4-(4-chlorophenoxy)phenyl)-4,5-dihydro-1H-pyrazol-1-yl) ethanone] | 5.02 ± 0.22 | 2.02 | 10.1 ± 0.62 | 117 to 119 | 
4 | O=C(C=Cc1ccc(Oc2ccc(Br)cc2)cc1)c1ccc(Cl)cc1 [Compound 2a, 3–(4-(4-Bromophenoxy)phenyl)-1–(4-chlorophenyl)prop-2-en-1-one] | 8.51 ± 0.16 | 3.92 | 33.4 ± 1.34 | 150 to 152 | 
5 | O=C(/C=C/c1ccc(Br)cc1)c1c(O)cccc1OCc1ccccc1 [IV] |  |  |  |  | activity against leukemia (leukemia): Effective against leukemia
6 | CCn1cc(/C=C/C(=O)c2ccc(Br)cc2)c(-c2ccc(OC)cc2)n1 [IX] |  |  |  |  | IC50 (MCF-7): 18.7 µM
7 | O=C(/C=C/c1ccc(Oc2ccc(Cl)cc2)cc1)c1ccc(N2CCOCC2)cc1 [V] |  |  |  |  | activity against C6 and Hela cell lines (C6 and Hela cell lines): Effective against C6 and Hela cell lines
8 | CC(=O)N1N=C(c2ccc(Cl)cc2)CC1c1ccc(Oc2ccc(Br)cc2)cc1 (stereo not drawn) [Compound 3a, 1–(5-(4–(4-Bromophenoxy)phenyl)-3–(4-chlorophenyl)-4,5-dihydro-1H-pyrazol-1-yl) ethanone] | 10.6 ± 0.39 | 5.29 | 55.8 ± 1.92 | 142 to 144 | 
9 | Cc1ccc(C(=O)C=Cc2ccc(Oc3ccc(Cl)cc3)cc2)cc1 [Compound 2f, 3–(4-(4-Chlorophenoxy)phenyl)-1-(p-tolyl)prop-2-en-1-one] | 1.87 ± 0.02 | 11.03 | 20.6 ± 0.37 | 136 to 138 | fold more active than 2e ([1]; MCF-7 IC50 compared with chalcone 2e): 23.6 fold; fold more active than 2d ([1]; MCF-7 IC50 compared with chalcone 2d): 10.6 fold
10 | CC(=O)N1N=C(c2ccc(C)cc2)CC1c1ccc(Oc2ccc(Cl)cc2)cc1 (stereo not drawn) [Compound 3f, 1–(5-(4–(4-Chlorophenoxy)phenyl)-3-(p-tolyl)-4,5-dihydro-1H-pyrazol-1-yl) ethanone] | 4.77 ± 0.13 | 2.55 | 12.2 ± 0.79 | 118 to 120 | 
